Measured values taken from patent publication US12616663B2, “Plant-derived exosome-like nanoparticles inhibit bacterial pathogenicity” (priority 2019, dated 2026).

Assays:
[1] = tested on: P. gingivalis total cell lysates; assay: SPR: P. gingivalis total cell lysates run over immobilized liposomes; type: binding, Porphyromonas gingivalis; conditions: LIP-1 sensor, total cell lysates as analyte
Description: (§1) Liposome preparation. Total lipids from ginger exosome-like nanoparticles (GELNs) were extracted with chloroform:methanol (2:1, v/v). Thin layer chromatography (TLC) was performed with standard PA(34:2). The corresponding PA band was excised from the TLC plate and remaining bands were pool together. GELNs total lipids, PA depleted lipids and PA(34:2) were completely dried under stream of nitrogen gas. The lipid film was suspended in HEPES-buffered saline (HBS) running buffer (20 mM HEPES, 150 mM NaCl, pH 7.4) and gently vortexed and sonicated for 10 minutes until clear solution was formed. The liposome suspension was extruded through a poly carbonated membrane filter syringe with pore size of 100 nm. The size of liposome was confirmed by NanoSight NS300 (Malvern Panalytical Inc, MA, USA). Total lipids were determined by measuring total phosphate levels.
Surface Plasmon Resonance (SPR). SPR experiments were conducted on an OPENSPR™ (Nicoya, Lifesciences, ON, CA). All experiments were carried on LIP-1 sensor (Nicoya, Lifesciences). Tests were run at flow rate of 20 μl/minute using HBS running buffer (20 mM HEPES, 150 mM NaCl, pH 7.4). First, LIP-1 sensor chip was cleaned with Octyl 0-D-glucopyranoside (40 mM) and CHAPS (20 mM). […] The sensograms were analyzed using TRACEDRAWER™ brand kinetic Analysis software. […]

[2] = tested on: P. gingivalis invasion into TIGK cells; assay: P. gingivalis invasion, antibiotic protection assay (CFU); type: cell-based, Porphyromonas gingivalis; human TIGK cells; conditions: GELNs total lipids or PA (34:2) vs DMSO control; miRNA-transduced bacteria
[3] = tested on: P. gingivalis; assay: Bacterial growth, optical density at 600 nm; type: cell-based, Porphyromonas gingivalis
Description: Bacterial strain and growth condition. P. gingivalis 33277 was cultured in tryptic soy broth supplemented with yeast extract (1 mg/ml), hemin (5 μg/ml) and menadione (1 μg/ml) and incubated at 37° C. in anaerobic chamber (85% N2, 10% H2, 5% CO2). S. gordonii DL1 was cultured in brain-heart infusion broth media containing 0.5% yeast extract and incubated at anaerobically at 37° C.
Bacterial growth. […] P. gingivalis and S. gordonii growth was determined by measuring optical density at 600 nm.

[4] = tested on: AraC transcription factor mRNA; type: cell-based, Porphyromonas gingivalis
[5] = tested on: hemagglutinin (HA) mRNA; type: cell-based, Porphyromonas gingivalis
[6] = tested on: P. gingivalis attachment to TIGK cells; assay: Attachment of P. gingivalis to epithelial cells (ELISA, confocal microscopy); type: cell-based, Porphyromonas gingivalis; human TIGK cells; conditions: GELNs vs PBS; total lipids (from 4.0×10^8 particles), 50 nM PA (34:2) vs DMSO; miRNAs vs scrambled control
Description: Culture of TIGK cells. Human telomerase immortalized keratinocytes (TIGKs) derived from gingival epithelium were obtained from Dr. Lamont Laboratory and maintained at 37° C. and 5% CO2 in DERMALIFE®-K brand serum free culture medium (Lifeline Cell Technology, Carlsbad, California, United States of America).
Attachment to epithelial cells. The amount of P. gingivalis attachment to the surface of gingival epithelial cells were determined. Briefly, telomerase immortalized gingival keratinocytes (TIGKs), derived from primary gingival epithelial cell lines, were cultured in 96-well plates for 24 hours. Then, the cells were fixed with 5% buffered formalin for 1 hour, and washed with PBS. […] Cells were washed with PBS to remove non-adherent bacteria. Then, wells were incubated with P. gingivalis whole-cell antibodies (1:10,000) at 37° C. for 1 hour, then washed with PBS. Binding was detected with a secondary horse radish peroxidase (HRP)-anti-rabbit antibody (1:5,000) and 3,3′,5,5′-tetramethylbenzidine substrate (Sigma), and recorded at 450 nm.
Then, the TIGK cells were fixed with 5% buffered formalin for 10 minutes. P. gingivalis cells were stained with an antibody raised against P. gingivalis (1:1000 dilution) incubated for 3 hour at room temperature. After extensive washing with PBS, cells were incubated with ALEXAFLUOR® 568-conjugated IgG (1:5000 dilution) for 1 hour at room temperature. […]

[7] = tested on: T9SS family members porK, porL, porM, porN, porP, porQ, porT, porV, porW, porX, porY, and sov; assay: qPCR of T9SS family member expression; type: cell-based, Porphyromonas gingivalis; conditions: GELNs 4.0×10^8 particles/ml, lipids from 4.0×10^8 particles, 5 μg PA (34:2) 6 hours; miRNAs 24 hours vs scrambled
Description: (§2) RNA isolation and quantitative real time PCR (qRT-PCR). Total RNA was isolated from P. gingivalis and TIGK cells using TRIZOL™ brand reagent according to the manufacturer's protocol (Invitrogen). RNA (1 μg) was converted into cDNA with ISCRIPT™ brand cDNA synthesis kit (Bio-Rad, Hercules, California, United States of America). qRT-PCR was performed for quantification of gene expression, cDNA samples were amplified with SSOFAST™ EVAGREEN® Supermix brand qRT-PCR cocktail in CFX96 Real-time PCR system (Bio-Rad). The mRNA expression was quantified by ΔΔCt method using 16S rRNA expression as an internal control for bacterial gene expression.
To further determine the molecular mechanisms underlying GELN-mediated inhibition of P. gingivalis gliding motility, the roles of GELNs, GELNs lipids, and GELN-derived miRNAs in modulating the expression of genes related to T9SS were determined. P. gingivalis was treated with GELNs (4.0×10^8 particles/ml) and GELNs lipids derived from 4.0×10^8 particles and 5 μg of PA (34:2) for 6 hours, and miRNAs aly-miR159a, gma-miR166u, and gma-miR166p were transduced into P. gingivalis by incubation for 24 hours. […] Further, it was determined that aly-miR159a-3p has potential binding sites in the T9SS C-terminal target domain containing protein PGN_0152; see FIG. 8H).

[8] = tested on: fimbrillin (fimA); assay: fimA expression (real-time PCR, western blot); type: cell-based, Porphyromonas gingivalis; conditions: GELNs, total lipids or PA (34:2) 6 hours vs DMSO
Description: as §2

[9] = tested on: rod shape determining protein (RodA) mRNA; type: cell-based, Porphyromonas gingivalis
[10] = tested on: P. gingivalis; assay: Gliding motility in U shaped glass tube with 0.2% agar; type: cell-based, Porphyromonas gingivalis; conditions: GELNs 4.0×10^8 particles/ml, PA (34:2) 5 μg/ml vs PBS; miRNAs vs scrambled miRNA; 48 hours
Description: Gliding motility. Gliding motility of P. gingivalis was measured. P. gingivalis was reacted with GELNs (4×10^8 particles/ml) or total lipids extracted from GELNs or miRNAs such as aly-miR-159a-3p, gma-miR166u, and gma-miR166p. A sterile “U” shaped glass tube containing 0.2% agar as suspension medium was produced. P. gingivalis (100 μl) was inoculated one edge of the tube and incubated at anaerobic chamber for 48 hours, the location of bacteria was visualized by cloudiness, and distance movement of P. gingivalis was calculated.
Transferring gingipain from intracellular locations to the cell surface is a critical step in the pathogenesis of P. gingivalis. Gingipains are synthesized with an N-terminal signal peptide targeting them to the Sec translocon where they are exported through the outer-membranes via a novel secretion system referred to as type IX Secretion System (T9SS). T9SS plays a critical role in bacterial gliding motility that could contribute to P. gingivalis pathogenesis. Therefore, it was determined whether GELNs, GELN-derived miRNAs, and/or GELN lipids could play a role in inhibition of gliding motility of P. gingivalis. P. gingivalis were pretreated with GELNs (4.0×10^8 particles/ml) or PA (34:2; 5 μg/ml) or transduced with GELN-derived aly-miR159a, gma-miR166u, or gma-miR166p. […]

[11] = molecular target: T1, lysine specific (Kgp) gingipain (Porphyromonas gingivalis, UniProt B2RLK2); type: cell-based; conditions: GELNs and GELN lipids 2×10^8 and 4×10^8 particles/ml vs PBS control; PA(34:2), aly-miR159a vs control
T1 construct: endogenous in cells; host or cells: Porphyromonas gingivalis, BugBuster lysate of treated bacteria

[12] = tested on: outer membrane protein (OMP) mRNA; type: cell-based, Porphyromonas gingivalis
[13] = tested on: HBP35 synthetic peptide (functional domain of hemin binding protein 35); assay: SPR: HBP35 synthetic peptide as analyte over immobilized liposomes; set-up: species or system Porphyromonas gingivalis; conditions: liposomes immobilized on LIP-1 sensor; non-specific peptide as negative control
Description: as §1, with “The size of liposome was confirmed by NanoSight NS300 (Malvern Panalytical Inc, MA, USA).” left out
Surface Plasmon Resonance (SPR). […] The sensograms were analyzed using TRACEDRAWER™ brand kinetic Analysis software.
Whether the HBP35 synthetic peptide directly bound to PA (34:2) and/or PA (34:1) of GELNs lipids was also tested. […] The lipid-protein interactions were determined by SPR sensograms. Fluorescent confocal micrographs of P. gingivalis labelled with PKH67 (green fluorescence) and GELNs and LipidG liposomes were labelled with PKH26 (red fluorescence). […] Particles and liposomes taken up by P. gingivalis were also quantified by flow cytometry. […]

[14] = tested on: arginine-specific (Rgp) gingipain; assay: Gingipain proteolytic activity (N-benzoyl-L-arginine-pNA); type: cell-based, Porphyromonas gingivalis; conditions: GELNs and GELN lipids 2×10^8 and 4×10^8 particles/ml vs PBS control; PA(34:2), aly-miR159a vs control
Description: Gingipain proteolytic activity. The proteolytic activity of arginine-specific (Rgp) and lysine specific (Kgp) gingipain was measured. P. gingivalis was cultured to mid-log phase and treated with and without GELNs (2.0-4.0×10^8 particles/ml) for 6 hour. The bacterial cells were collected by centrifugation at 5000 g for 10 minutes, washed, and lysed with BUGBUSTER® brand lysis reagent (Millipore Sigma, Burlington, MA, USA). The chromogenic p-nitroanilide substrates N-benzoyl-L-arginine-pNA or toluenesulfonyl-glycyl-prolyl-L-lysine-pNA (Sigma) were used to measure RgpA/B and Kgp respectively. Bacterial cell lysates (50 μl) were pre-incubated with assay buffer containing 200 mM Tris-HCl, 5 mM CaCl2/150 mM NaCl and supplemented with 10 mM cysteine in 96-well plate, incubated at 37° C. for 10 minutes, and 0.5 mM of specific substrate was added to each well. The rate of substrate hydrolysis and accumulation of p-nitroanillide was monitored spectrophotometrically at 405 nm. The enzyme activity was calculated and given as mOD/min/μl.

CCCCC/C=C\C/C=C\CCCCCCCC(=O)O[C@H](COC(=O)CCCCCCCCCCCCCCC)COP(=O)(O)O [PA (34:2), 1-palmitoyl-2-linoleoyl-sn-glycero-3-phosphate]
interaction of P. gingivalis proteins with immobilized nanoparticles (SPR sensograms) [1]: able to interact
P. gingivalis invasion into TIGK cells [2]: significant decrease
concentration at which P. gingivalis growth was inhibited ([3]; 0-50 μg/ml tested, 24 hours, very low concentration compared to other lipid compounds): 5 µg/mL
AraC mRNA expression [4]: inhibited
hemagglutinin (HA) mRNA expression [5]: not significant
surface attachment of P. gingivalis to TIGK cells (ELISA) [6]: significantly inhibited surface attachment
T9SS family members whose expression was significantly inhibited [7]: 9/12
fimA expression (mRNA and protein levels) [8]: significantly decreased
RodA mRNA expression [9]: inhibited
gliding motility of P. gingivalis [10]: significantly inhibited the motility
lysine-specific (Kgp) gingipain activity [11]: contributed to inhibit
outer membrane protein (OMP) mRNA expression [12]: inhibited
direct interaction with HBP35 synthetic peptide (SPR sensogram peaks) [13]: directly interacted
arginine-specific (Rgp) gingipain activity [14]: contributed to inhibit

WPRVGQLFIALDQTLGIPGFPTFSVCRME [HBP35 synthetic peptide]
blocking of GELN lipid-mediated inhibition of P. gingivalis growth ([3]; GELN total lipids (4.0 and 6.0×10^8 particles) pre-incubated with peptide): significantly blocked
blocking of PA-mediated inhibition of P. gingivalis growth ([3]; PA (34:2) pre-incubated with peptide): significantly blocked
